Experimental data: ChEMBL document CHEMBL1140238, “Synthesis of selective SRPK-1 inhibitors: novel tricyclic quinoxaline derivatives” (Bioorg Med Chem Lett, 2005)

target: Hepatocyte growth factor receptor (Homo sapiens) (UniProt P08581); test: In vitro percent inhibition of Met proto-oncogene tyrosine kinase at 10 uM concentration of compound dissolved in 100% DMSO using 5''-[gamma-33P]-triphosphate; conditions: not given
Sequence (P08581 whole entry): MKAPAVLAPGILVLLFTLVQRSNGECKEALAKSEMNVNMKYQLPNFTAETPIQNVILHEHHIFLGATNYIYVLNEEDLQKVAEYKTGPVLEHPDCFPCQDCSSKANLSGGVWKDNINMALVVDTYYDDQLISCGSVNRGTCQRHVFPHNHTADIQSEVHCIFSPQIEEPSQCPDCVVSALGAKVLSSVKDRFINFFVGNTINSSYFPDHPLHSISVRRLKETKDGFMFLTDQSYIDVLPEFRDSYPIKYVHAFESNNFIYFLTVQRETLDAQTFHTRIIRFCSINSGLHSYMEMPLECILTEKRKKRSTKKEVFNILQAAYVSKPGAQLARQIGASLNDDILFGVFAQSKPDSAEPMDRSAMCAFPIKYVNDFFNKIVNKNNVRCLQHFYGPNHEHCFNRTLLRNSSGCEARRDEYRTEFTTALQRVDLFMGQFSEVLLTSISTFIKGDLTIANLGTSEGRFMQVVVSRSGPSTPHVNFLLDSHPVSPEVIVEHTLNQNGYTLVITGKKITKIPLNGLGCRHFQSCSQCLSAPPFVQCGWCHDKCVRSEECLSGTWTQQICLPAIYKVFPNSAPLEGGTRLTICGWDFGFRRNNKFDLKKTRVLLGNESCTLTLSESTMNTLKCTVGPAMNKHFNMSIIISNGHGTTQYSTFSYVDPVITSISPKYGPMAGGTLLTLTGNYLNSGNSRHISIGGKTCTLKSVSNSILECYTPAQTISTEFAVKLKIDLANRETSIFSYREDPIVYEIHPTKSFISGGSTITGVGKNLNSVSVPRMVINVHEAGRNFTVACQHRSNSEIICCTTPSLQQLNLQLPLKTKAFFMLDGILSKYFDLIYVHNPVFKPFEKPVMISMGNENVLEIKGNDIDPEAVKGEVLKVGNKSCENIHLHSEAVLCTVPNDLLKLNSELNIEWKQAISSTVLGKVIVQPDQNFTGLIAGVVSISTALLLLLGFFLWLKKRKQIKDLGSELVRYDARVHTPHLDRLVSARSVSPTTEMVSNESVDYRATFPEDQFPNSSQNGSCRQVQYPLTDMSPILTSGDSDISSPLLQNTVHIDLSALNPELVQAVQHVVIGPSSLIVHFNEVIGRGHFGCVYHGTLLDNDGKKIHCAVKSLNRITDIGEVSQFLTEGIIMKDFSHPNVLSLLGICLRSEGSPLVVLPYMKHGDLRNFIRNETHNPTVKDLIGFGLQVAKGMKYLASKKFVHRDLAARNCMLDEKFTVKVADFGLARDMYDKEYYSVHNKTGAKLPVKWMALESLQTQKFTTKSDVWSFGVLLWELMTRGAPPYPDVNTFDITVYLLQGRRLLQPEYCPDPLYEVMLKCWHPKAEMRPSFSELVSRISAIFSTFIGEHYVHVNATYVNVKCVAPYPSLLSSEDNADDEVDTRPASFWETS

| Compound | inhibition [%] |
| --- | --- |
| Oc1cc2nc(-c3cccs3)c(-c3cccs3)nc2cc1O | 0 |
| O=C(O)c1ccc2cc3nc(-c4cccs4)c(-c4cccs4)nc3cc2c1 | 49 |

system: not listed separately; test: In vitro percent inhibition of Ribosomal S6 kinase 1 at 10 uM concentration of compound dissolved in 100% DMSO using 5''-[gamma-33P]-triphosphate; conditions: not given

| Compound | inhibition [%] |
| --- | --- |
| Oc1cc2nc(-c3cccs3)c(-c3cccs3)nc2cc1O | 6 |
| O=C(O)c1ccc2cc3nc(-c4cccs4)c(-c4cccs4)nc3cc2c1 | 3 |

target: Rho-associated protein kinase 2 (Homo sapiens) (UniProt O75116); test: In vitro percent inhibition of Protein kinase ROCK2 at 10 uM concentration of compound dissolved in 100% DMSO using 5''-[gamma-33P]-triphosphate; conditions: not given

| Compound | inhibition [%] |
| --- | --- |
| O=C(O)c1ccc2cc3nc(-c4cccs4)c(-c4cccs4)nc3cc2c1 | 15 |

target: Glycogen synthase kinase-3 beta (Homo sapiens) (UniProt P49841); test: In vitro percent inhibition of Glycogen synthase kinase 3 beta at 10 uM concentration of compound dissolved in 100% DMSO using 5''-[gamma-33P]-triphosphate; conditions: not given

| Compound | inhibition [%] |
| --- | --- |
| Oc1cc2nc(-c3cccs3)c(-c3cccs3)nc2cc1O | 5 |
| O=C(O)c1ccc2cc3nc(-c4cccs4)c(-c4cccs4)nc3cc2c1 | 4 |

system: not listed separately; test: In vitro percent inhibition of Cyclin-dependent kinase 2-cyclin A at 10 uM concentration of compound dissolved in 100% DMSO using 5''-[gamma-33P]-triphosphate; conditions: not given

| Compound | inhibition [%] |
| --- | --- |
| Oc1cc2nc(-c3cccs3)c(-c3cccs3)nc2cc1O | 7 |

target: RAC-alpha serine/threonine-protein kinase (Homo sapiens) (UniProt P31749); test: In vitro percent inhibition of Protein kinase B, alpha at 10 uM concentration of compound dissolved in 100% DMSO using 5''-[gamma-33P]-triphosphate; conditions: not given

| Compound | inhibition [%] |
| --- | --- |
| Oc1cc2nc(-c3cccs3)c(-c3cccs3)nc2cc1O | -7 |
| O=C(O)c1ccc2cc3nc(-c4cccs4)c(-c4cccs4)nc3cc2c1 | -10 |

target: Epidermal growth factor receptor (Homo sapiens) (UniProt P00533); conditions: 10 uM
Sequence (P00533 whole entry): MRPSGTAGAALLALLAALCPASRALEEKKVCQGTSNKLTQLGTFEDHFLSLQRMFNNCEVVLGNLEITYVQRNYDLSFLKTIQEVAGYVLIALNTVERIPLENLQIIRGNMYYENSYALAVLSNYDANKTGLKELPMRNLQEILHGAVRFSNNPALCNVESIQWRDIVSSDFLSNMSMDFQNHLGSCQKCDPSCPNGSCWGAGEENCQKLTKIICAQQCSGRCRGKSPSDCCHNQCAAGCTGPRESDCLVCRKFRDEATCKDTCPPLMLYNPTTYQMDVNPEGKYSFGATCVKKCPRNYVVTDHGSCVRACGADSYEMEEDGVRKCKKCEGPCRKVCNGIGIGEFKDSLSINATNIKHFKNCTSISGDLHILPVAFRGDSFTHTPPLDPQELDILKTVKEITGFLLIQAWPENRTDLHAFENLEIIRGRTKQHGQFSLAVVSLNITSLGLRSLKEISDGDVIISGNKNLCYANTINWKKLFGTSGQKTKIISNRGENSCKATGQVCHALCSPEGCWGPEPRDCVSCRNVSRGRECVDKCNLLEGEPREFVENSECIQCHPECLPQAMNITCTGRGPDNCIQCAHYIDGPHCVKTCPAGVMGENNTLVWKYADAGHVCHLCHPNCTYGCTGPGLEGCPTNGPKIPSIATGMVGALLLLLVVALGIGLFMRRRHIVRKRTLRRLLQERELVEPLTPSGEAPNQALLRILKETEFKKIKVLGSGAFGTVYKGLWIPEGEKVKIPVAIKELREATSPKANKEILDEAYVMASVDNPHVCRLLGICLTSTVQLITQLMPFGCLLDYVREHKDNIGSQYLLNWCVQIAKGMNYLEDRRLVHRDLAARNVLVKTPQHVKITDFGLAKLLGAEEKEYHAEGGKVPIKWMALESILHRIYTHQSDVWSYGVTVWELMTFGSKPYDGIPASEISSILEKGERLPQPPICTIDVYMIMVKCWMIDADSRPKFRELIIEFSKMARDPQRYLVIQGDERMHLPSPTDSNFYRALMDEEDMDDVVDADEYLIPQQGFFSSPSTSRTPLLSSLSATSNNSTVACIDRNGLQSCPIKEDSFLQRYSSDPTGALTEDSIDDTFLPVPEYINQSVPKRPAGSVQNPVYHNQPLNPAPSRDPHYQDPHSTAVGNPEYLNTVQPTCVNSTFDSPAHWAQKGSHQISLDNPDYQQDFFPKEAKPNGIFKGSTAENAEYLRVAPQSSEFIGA

| Compound | inhibition [%] |
| --- | --- |
| Oc1cc2nc(-c3cccs3)c(-c3cccs3)nc2cc1O | 25 |
| O=C(O)c1ccc2cc3nc(-c4cccs4)c(-c4cccs4)nc3cc2c1 | 40 |

target: Casein kinase I isoform alpha (Homo sapiens) (UniProt P48729); test: In vitro percent inhibition of Casein kinase 1 alpha at 10 uM concentration of compound dissolved in 100% DMSO using 5''-[gamma-33P]-triphosphate; conditions: not given

| Compound | inhibition [%] |
| --- | --- |
| Oc1cc2nc(-c3cccs3)c(-c3cccs3)nc2cc1O | 9 |
| O=C(O)c1ccc2cc3nc(-c4cccs4)c(-c4cccs4)nc3cc2c1 | 10 |

target: Platelet-derived growth factor receptor beta (Homo sapiens) (UniProt P09619); test: In vitro percent inhibition of Platelet-derived growth factor receptor, beta polypeptide at 10 uM concentration of compound dissolved in 100% DMSO using 5''-[gamma-33P]-triphosphate; conditions: not given

| Compound | inhibition [%] |
| --- | --- |
| O=C(O)c1ccc2cc3nc(-c4cccs4)c(-c4cccs4)nc3cc2c1 | 68 |

target: Insulin receptor (Homo sapiens) (UniProt P06213); test: In vitro percent inhibition of Insulin receptor at 10 uM concentration of compound dissolved in 100% DMSO using 5''-[gamma-33P]-triphosphate; conditions: not given
Sequence (P06213 28-758 limits assumed): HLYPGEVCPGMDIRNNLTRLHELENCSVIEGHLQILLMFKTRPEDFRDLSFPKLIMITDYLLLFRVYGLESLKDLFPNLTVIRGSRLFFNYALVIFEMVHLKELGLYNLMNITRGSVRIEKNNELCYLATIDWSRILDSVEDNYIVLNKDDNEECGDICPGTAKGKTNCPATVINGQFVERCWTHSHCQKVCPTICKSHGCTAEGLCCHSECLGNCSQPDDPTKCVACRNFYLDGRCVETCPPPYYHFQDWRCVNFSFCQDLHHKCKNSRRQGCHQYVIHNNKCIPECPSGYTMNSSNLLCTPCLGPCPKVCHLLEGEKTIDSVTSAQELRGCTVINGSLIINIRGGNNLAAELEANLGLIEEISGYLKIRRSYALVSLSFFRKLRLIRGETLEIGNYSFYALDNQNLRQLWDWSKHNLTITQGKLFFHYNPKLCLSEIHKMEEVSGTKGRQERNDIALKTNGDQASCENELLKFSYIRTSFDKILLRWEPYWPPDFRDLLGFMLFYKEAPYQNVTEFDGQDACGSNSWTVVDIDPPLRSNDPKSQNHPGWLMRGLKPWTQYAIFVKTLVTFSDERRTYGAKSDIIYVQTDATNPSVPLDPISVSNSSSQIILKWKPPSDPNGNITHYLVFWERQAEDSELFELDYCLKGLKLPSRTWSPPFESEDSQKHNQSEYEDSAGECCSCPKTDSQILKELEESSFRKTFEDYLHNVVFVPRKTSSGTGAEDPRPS
Sequence (P06213 763-1382 limits assumed): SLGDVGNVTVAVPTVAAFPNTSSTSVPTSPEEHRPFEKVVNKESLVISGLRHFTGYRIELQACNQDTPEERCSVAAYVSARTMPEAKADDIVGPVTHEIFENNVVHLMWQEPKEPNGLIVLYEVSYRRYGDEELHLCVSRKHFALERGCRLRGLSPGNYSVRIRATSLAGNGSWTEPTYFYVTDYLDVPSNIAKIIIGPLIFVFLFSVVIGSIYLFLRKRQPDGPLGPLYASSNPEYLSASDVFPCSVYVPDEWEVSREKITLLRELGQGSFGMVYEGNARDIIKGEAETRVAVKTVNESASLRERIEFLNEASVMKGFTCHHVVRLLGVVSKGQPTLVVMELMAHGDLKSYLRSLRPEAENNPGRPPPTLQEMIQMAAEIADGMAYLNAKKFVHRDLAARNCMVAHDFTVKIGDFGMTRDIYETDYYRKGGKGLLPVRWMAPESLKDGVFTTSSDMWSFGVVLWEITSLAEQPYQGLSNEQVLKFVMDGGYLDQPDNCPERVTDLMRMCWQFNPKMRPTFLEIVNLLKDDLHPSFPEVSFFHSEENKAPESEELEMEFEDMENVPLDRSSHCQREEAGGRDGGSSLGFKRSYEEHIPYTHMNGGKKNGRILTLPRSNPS

| Compound | inhibition [%] |
| --- | --- |
| Oc1cc2nc(-c3cccs3)c(-c3cccs3)nc2cc1O | -4 |
| O=C(O)c1ccc2cc3nc(-c4cccs4)c(-c4cccs4)nc3cc2c1 | 42 |

target: Mitogen-activated protein kinase 3 (Homo sapiens) (UniProt P27361); test: In vitro percent inhibition of Mitogen-activated protein kinase 3 at 10 uM concentration of compound dissolved in 100% DMSO using 5''-[gamma-33P]-triphosphate; conditions: not given
Sequence (P27361 whole entry): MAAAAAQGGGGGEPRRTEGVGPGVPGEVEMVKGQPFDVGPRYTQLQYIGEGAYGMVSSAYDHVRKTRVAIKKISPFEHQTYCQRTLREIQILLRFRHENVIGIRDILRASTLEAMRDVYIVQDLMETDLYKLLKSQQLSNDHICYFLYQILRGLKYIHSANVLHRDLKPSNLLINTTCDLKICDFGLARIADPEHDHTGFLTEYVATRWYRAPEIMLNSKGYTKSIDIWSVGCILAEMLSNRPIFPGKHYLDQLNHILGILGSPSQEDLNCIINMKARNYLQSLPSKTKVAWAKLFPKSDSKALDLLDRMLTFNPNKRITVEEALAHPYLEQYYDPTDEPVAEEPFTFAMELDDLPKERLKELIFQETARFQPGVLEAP

| Compound | inhibition [%] |
| --- | --- |
| Oc1cc2nc(-c3cccs3)c(-c3cccs3)nc2cc1O | 25 |
| O=C(O)c1ccc2cc3nc(-c4cccs4)c(-c4cccs4)nc3cc2c1 | 18 |

target: T1, Inhibitor of nuclear factor kappa-B kinase subunit beta (Homo sapiens) (UniProt O14920); test: In vitro percent inhibition of I-kappa-B-kinase beta at 10 uM concentration of compound dissolved in 100% DMSO using 5''-[gamma-33P]-triphosphate; conditions: not given
T1 sequence (whole entry): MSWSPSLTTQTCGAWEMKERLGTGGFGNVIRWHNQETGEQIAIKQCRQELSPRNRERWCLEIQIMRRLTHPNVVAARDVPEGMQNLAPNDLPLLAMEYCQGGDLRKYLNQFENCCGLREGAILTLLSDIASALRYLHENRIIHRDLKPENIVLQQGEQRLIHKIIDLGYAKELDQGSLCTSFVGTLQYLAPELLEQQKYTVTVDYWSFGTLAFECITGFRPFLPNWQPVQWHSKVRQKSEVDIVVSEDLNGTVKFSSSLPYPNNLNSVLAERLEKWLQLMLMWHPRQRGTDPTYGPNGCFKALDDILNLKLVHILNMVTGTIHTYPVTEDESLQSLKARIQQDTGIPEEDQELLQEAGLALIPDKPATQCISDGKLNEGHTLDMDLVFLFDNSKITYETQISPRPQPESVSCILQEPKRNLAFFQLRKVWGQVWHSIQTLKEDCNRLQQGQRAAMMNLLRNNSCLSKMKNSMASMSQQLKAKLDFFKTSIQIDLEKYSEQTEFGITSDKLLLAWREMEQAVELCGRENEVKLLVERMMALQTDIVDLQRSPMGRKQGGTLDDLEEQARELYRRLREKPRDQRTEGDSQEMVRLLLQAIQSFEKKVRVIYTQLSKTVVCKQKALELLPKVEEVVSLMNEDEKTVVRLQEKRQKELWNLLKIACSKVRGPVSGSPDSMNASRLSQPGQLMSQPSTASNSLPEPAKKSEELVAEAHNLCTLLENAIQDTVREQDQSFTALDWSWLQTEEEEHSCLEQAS

| Compound | inhibition [%] |
| --- | --- |
| Oc1cc2nc(-c3cccs3)c(-c3cccs3)nc2cc1O | 3 |
| O=C(O)c1ccc2cc3nc(-c4cccs4)c(-c4cccs4)nc3cc2c1 | 42 |

target: RAF proto-oncogene serine/threonine-protein kinase (Homo sapiens) (UniProt P04049); test: In vitro percent inhibition of RAF proto-oncogene serine/threonine-protein kinase at 10 uM concentration of compound dissolved in 100% DMSO using 5''-[gamma-33P]-triphosphate; conditions: not given

| Compound | inhibition [%] |
| --- | --- |
| Oc1cc2nc(-c3cccs3)c(-c3cccs3)nc2cc1O | 3 |
| O=C(O)c1ccc2cc3nc(-c4cccs4)c(-c4cccs4)nc3cc2c1 | 6 |

target: Tyrosine-protein kinase Lck (Homo sapiens) (UniProt P06239); test: In vitro percent inhibition of p56 Lck tyrosine kinase at 10 uM concentration of compound dissolved in 100% DMSO using 5''-[gamma-33P]-triphosphate; conditions: not given

| Compound | inhibition [%] |
| --- | --- |
| Oc1cc2nc(-c3cccs3)c(-c3cccs3)nc2cc1O | 1 |
| O=C(O)c1ccc2cc3nc(-c4cccs4)c(-c4cccs4)nc3cc2c1 | 47 |

system: not listed separately; test: Partition coefficient (logP); type: physicochemical; conditions: octanol/water

| Compound | logP |
| --- | --- |
| Oc1cc2nc(-c3cccs3)c(-c3cccs3)nc2cc1O | 4.2 |
| O=C(O)c1ccc2cc3nc(-c4cccs4)c(-c4cccs4)nc3cc2c1 | 5.4 |

target: Mitogen-activated protein kinase 8 (Homo sapiens) (UniProt P45983); test: In vitro percent inhibition of c-Jun N-terminal kinase 1-alpha 1 at 10 uM concentration of compound dissolved in 100% DMSO using 5''-[gamma-33P]-triphosphate; conditions: not given

| Compound | inhibition [%] |
| --- | --- |
| Oc1cc2nc(-c3cccs3)c(-c3cccs3)nc2cc1O | -3 |
| O=C(O)c1ccc2cc3nc(-c4cccs4)c(-c4cccs4)nc3cc2c1 | 20 |

target: Mast/stem cell growth factor receptor Kit (Homo sapiens) (UniProt P10721); test: In vitro percent inhibition of v-kit Hardy-Zuckerman 4 feline sarcoma viral oncogene homolog at 10 uM concentration of compound dissolved in 100% DMSO using 5''-[gamma-33P]-triphosphate; conditions: not given

| Compound | inhibition [%] |
| --- | --- |
| Oc1cc2nc(-c3cccs3)c(-c3cccs3)nc2cc1O | -7 |
| O=C(O)c1ccc2cc3nc(-c4cccs4)c(-c4cccs4)nc3cc2c1 | 56 |

target: Ribosomal protein S6 kinase (P70S6K) (Homo sapiens) (UniProt Q9UBS0+P23443); test: In vitro percent inhibition of Ribosomal protein S6 kinase at 10 uM concentration of compound dissolved in 100% DMSO using 5''-[gamma-33P]-triphosphate; type: protein-complex assay; conditions: not given

| Compound | inhibition [%] |
| --- | --- |
| Oc1cc2nc(-c3cccs3)c(-c3cccs3)nc2cc1O | -8 |
| O=C(O)c1ccc2cc3nc(-c4cccs4)c(-c4cccs4)nc3cc2c1 | 5 |

target: Proto-oncogene tyrosine-protein kinase Src (Homo sapiens) (UniProt P12931); test: In vitro percent inhibition of c-Src tyrosine kinase at 10 uM concentration of compound dissolved in 100% DMSO using 5''-[gamma-33P]-triphosphate; conditions: not given
Sequence (P12931 2-536 limits assumed): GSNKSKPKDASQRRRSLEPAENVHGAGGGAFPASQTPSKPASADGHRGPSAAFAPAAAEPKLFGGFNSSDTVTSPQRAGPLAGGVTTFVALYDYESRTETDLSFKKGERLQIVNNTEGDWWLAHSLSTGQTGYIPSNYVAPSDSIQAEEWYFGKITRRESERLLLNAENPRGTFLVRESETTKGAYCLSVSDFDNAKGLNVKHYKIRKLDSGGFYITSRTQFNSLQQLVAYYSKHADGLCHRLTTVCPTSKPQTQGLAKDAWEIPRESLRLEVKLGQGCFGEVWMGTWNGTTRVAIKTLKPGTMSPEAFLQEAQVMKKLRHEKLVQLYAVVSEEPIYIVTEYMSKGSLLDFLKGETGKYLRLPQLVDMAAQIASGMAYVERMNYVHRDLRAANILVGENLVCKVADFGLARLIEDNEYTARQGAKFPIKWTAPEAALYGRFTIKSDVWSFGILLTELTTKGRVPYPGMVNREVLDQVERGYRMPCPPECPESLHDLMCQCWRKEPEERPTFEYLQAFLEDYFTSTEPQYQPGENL

| Compound | inhibition [%] |
| --- | --- |
| Oc1cc2nc(-c3cccs3)c(-c3cccs3)nc2cc1O | -3 |
| O=C(O)c1ccc2cc3nc(-c4cccs4)c(-c4cccs4)nc3cc2c1 | 83 |

target: T2, Tyrosine-protein kinase transforming protein Abl (Abelson murine leukemia virus) (UniProt P00521); test: In vitro percent inhibition of v-Abl tyrosine kinase at 10 uM concentration of compound dissolved in 100% DMSO using 5''-[gamma-33P]-triphosphate; conditions: not given
T2 sequence (whole entry): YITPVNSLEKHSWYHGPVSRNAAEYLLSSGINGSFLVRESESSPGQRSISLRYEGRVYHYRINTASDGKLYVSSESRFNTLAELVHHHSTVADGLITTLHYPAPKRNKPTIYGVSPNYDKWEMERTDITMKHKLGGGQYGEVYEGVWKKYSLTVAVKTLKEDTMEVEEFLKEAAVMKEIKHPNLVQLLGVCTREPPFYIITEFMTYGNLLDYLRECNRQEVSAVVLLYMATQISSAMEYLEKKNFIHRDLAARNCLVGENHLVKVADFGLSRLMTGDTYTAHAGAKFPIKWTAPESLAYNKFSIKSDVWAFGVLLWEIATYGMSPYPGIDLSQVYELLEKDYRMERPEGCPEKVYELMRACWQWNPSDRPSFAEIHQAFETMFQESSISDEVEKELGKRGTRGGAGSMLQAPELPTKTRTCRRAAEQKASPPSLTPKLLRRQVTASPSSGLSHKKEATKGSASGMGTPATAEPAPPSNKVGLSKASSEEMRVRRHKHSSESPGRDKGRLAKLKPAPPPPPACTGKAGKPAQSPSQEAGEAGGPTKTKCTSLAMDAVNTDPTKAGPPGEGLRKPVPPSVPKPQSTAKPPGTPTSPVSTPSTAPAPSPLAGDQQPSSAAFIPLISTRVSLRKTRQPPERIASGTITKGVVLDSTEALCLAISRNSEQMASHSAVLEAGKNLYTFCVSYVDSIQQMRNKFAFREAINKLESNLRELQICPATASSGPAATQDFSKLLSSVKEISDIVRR

| Compound | inhibition [%] |
| --- | --- |
| Oc1cc2nc(-c3cccs3)c(-c3cccs3)nc2cc1O | 1 |
| O=C(O)c1ccc2cc3nc(-c4cccs4)c(-c4cccs4)nc3cc2c1 | 11 |
